Laboratory results taken from patent publication US5510346A, “4-heteroaryl-1,3-benzodiazepines and 2-substituted-gamma-(heteroaryl)benzeneethanamines” (Hoechst Marion Roussel, Inc., priority 1991, dated 1996).

What was measured:
[1] = test system: Geller Conflict Paradigm in Rats; assay: Geller Conflict Paradigm in Rats (anxiolytic activity); type: in vivo; conditions: i.p.
From the text: The intraperitoneal (i.p.) dosages at which the following compounds show anxiolytic activity are: […]

[2] = test system: N-methyl-D-aspartic acid (NMDA)-induced seizures; assay: N-Methyl-D,L-Aspartic Acid Induced Seizure Assay (NMDA protection); type: in vivo; conditions: male Swiss Webster mice, ip; N-methyl-D,L-aspartic acid 350 mg/kg challenge; absence of clonic seizures during 30 minute observation
Description: In this assay, male Swiss Webster mice (Charles River), 18-25 grams are used. Animals are ordered at 33 to 36 days of age and can be used for 8 days after arrival. They are housed for at least 24 hours in a climate controlled animal colony with food and water available ad libimm. On the day of testing, animals are brought to the laboratory and randomly assigned to groups. N-Methyl-D,L-aspartic acid (350 mg) is dissolved in 10 ml of saline and mixed thoroughly with a homogenizer for 1-2 minutes. Test compounds are prepared in distilled water and, if insoluable, a suitable surfactant is added. For a primary screen the test compound is administered at 60 mg/kg, ip (10 ml/kg), to groups of ten mice, 30 minutes prior to challenge with N-methyl-D,L-aspartic acid (350 mg/kg, […]). After N-Methyl-D,L-aspartic acid administration animals are placed individually in clear plastic cyclinders (12"×5.5"×1/4") and then observed for clonic seizures. N-methyl-D,L-aspartic acid will produce clonic seizures, and sometimes tonic seizures and death, in vehicle control animals.
A clonic convulsion is defined as a single episode of clonic spasms of a least a 3 second duration. […]
Data is calculated by the method of J. T. Litchfield, Jr. and F. Wileoxon. […]
The normalized percent protection is calculated using the following formula: [formula]

CN1C(=O)CN=C(c2ccccc2)c2cc(Cl)ccc21 [Diazepam, reference compound]
Anti-Conflict Response % Change Compared to Control ([1]; 10 mg/kg): +180% | Anti-Conflict Response % Change Compared to Control ([1]; 20 mg/kg): +630%

CCNC(Cc1ccccc1N)c1sccc1C.Cl.Cl (stereo not drawn) [2-Amino-N-ethyl-α-(3-methyl-2-thienyl)benzeneethanamine dihydrochloride]
Anti-Conflict Response % Change Compared to Control ([1]; 1 mg/kg): +100% | Anti-Conflict Response % Change Compared to Control ([1]; 5 mg/kg): +70%

2-Amino-α-(3-methyl-3-thienyl)benzeneethanamine
NMDA Protection ED50 [2]: 19.0 mg/kg
